Laboratory results from BigSolDB 2.1.

Conditions: 298.15 K

O=C(C(=O)c1ccccc1)c1ccccc1
Conditions | solubility (mole fraction)
in 2,2,2-trifluoroethanol | 0.0352
in 2-butanone | 0.184
in 2-methyl-1-pentanol | 0.0139
in 3,7-dimethyl-1-octanol | 0.0173
in DMSO | 0.0228
in acetone | 0.16
in acetonitrile | 0.0635
in butyronitrile | 0.151
in chlorobenzene | 0.201
in cyclohexanone | 0.241
in diethyl ether | 0.0674
in diisopropyl ether | 0.0309
in methyl acetate | 0.152
in n-decane | 0.00855
in n-decanol | 0.0212
in n-hexadecane | 0.0118
in propionitrile | 0.129
in propylene carbonate | 0.094
in tert-butanol | 0.0106
